Laboratory results reported in publication PMC9194828, “Chemoenzymatic Synthesis of Asymmetrically Branched Human Milk Oligosaccharide Lacto-N-Hexaose” (Frontiers in Chemistry, 2022).

Molecular target: T1, HP0826 (β1,4-galactosyltransferase) (Helicobacter pylori, UniProt O25500)
T1 construct: gene HP_0826; recombinantly expressed per earlier literature (Fang et al., 2018); used as cell lysate in synthesis
Assay: acceptor specificity test
Format: cell-based
Conditions: UDP-Gal donor; enzyme preparation not given

T1 sequence (O25500 entry or part of it): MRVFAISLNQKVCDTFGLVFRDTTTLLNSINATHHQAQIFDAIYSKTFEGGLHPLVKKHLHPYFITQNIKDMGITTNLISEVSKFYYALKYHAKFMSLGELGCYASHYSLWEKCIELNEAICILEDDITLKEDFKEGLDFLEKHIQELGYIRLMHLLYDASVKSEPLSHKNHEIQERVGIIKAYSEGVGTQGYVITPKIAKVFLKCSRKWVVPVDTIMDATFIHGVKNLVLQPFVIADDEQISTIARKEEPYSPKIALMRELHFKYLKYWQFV

## CC(=O)N[C@H]1[C@H](OCCCCCCN=[N+]=[N-])O[C@H](CO)[C@@H](O)[C@@H]1O [GlcNAc-C6N3]
  acceptor specificity test: HP0826 exhibited excellent enzymatic activity on GlcNAc-C6N3
